From paper PMC12677699, “Utilizing Proteolytic‐Resistant Nano‐Short Peptide Based on Naphthyl Tail‐Anchored to Combat Bacterial Infections” (Advanced Science, 2025)

Legend:
[1] = Dynamic light scattering and zeta potential; format: physicochemical; conditions: 16 × 10^−6 M in deionized water; n = 3
Protocol: N4 was diluted to 16 × 10^−6 M using deionized water and added to disposable plastic cuvettes, and the kinetic diameters was determined using a Zetasizer Nano Z90 (Malvern Instruments, Worcestershire, U.K.).^[ [29] ^] N4 was diluted to 16 × 10^−6 M using deionized water and added to the electrode cups, and the zeta potential was determined using a Zetasizer Nano Z90 (Malvern Instruments, Worcestershire, UK).^[ [29] ^]

E. coli ATCC 25922 = assay: Intracellular ATP determination; format: cell-based, Escherichia coli; conditions: 16 × 10^−6 M, E. coli ATCC 25922, 1 h, 37 °C; n = 3
Protocol: The intracellular ATP levels of E. coli ATCC 25922 and S. aureus ATCC 29213 after nano‐short peptides treatment were detected using an Enhanced ATP Assay Kit.^[ [59] ^] Logarithmic growth stage E. coli ATCC 25922 and S. aureus ATCC 29213 bacterial solutions were diluted to OD600 = 0.4 in MHB liquid medium. Then, the bacterial dilutions were co‐incubated with different concentrations of nano‐short peptides at 37 °C for 1 h. After incubation, the bacterial dilutions were centrifuged (12 000 rpm, 5 min, 4 °C) to pellet the cells. The resulting bacterial pellets were processed according to the steps in the kit. Finally, the chemiluminescence was detected by a microplate reader.

E. coli = assay: In vivo peritonitis-sepsis model; set-up: species or system mouse; conditions: 14 h, n = 8
Protocol: The mice used in the peritonitis‐sepsis model were consistent with those employed in the in vivo toxicity assessment. Twenty‐four mice were randomly divided into three groups after a 3‐day pre‐feeding period. The mice in the control group received intraperitoneal injections of 100 µL of saline, followed by an additional 100 µL of saline 1 h later. The mice in the other two groups were administered intraperitoneal injections of 100 µL of a saline‐diluted E. coli suspension (OD600 = 0.6), and subsequently received either 100 µL of saline (E. coli‐infected group) or 10 mg kg^−1 of N4(N4‐treated group) 1 h later. 14 h post‐infection, the mice were euthanized via ether inhalation anesthesia, and blood samples were collected from the orbital vein for the analysis of inflammatory factors (IL‐1β, IL‐6, TNF‐α, and IL‐10).^[ [71] ^] In addition, peritoneal fluid was aseptically collected via peritoneal lavage with sterile saline. The liver, spleen, and kidneys were harvested, weighed, and homogenized. Homogenized samples were plated on Mueller‐Hinton agar (MHA) solid medium for overnight incubation, and bacterial load was quantified the next day. Sections of the liver, spleen, and kidneys were obtained for histological analysis employing H&E staining. Besides, the spleens were specifically selected for immunofluorescence analysis to assess the expression levels of IL‐10, TNF‐α, CD206, and CD86.

[2] = N4 10 mg kg^−1 i.p., vs infected group, p < 0.05

N=C(N)NCCC[C@H](NC(=O)[C@@H](CCCNC(=N)N)NC(=O)[C@H](Cc1cccc2ccccc12)NC(=O)[C@H](Cc1cccc2ccccc12)NC(=O)[C@H](Cc1cccc2ccccc12)NC(=O)[C@@H](N)Cc1cccc2ccccc12)C(=O)N[C@@H](CCCNC(=N)N)C(=O)N1CCC[C@H]1C(=O)O (stereo in doubt) [Peptide N4]
zeta potential [1]: 6.99 mV | ATP levels decreased to (E. coli ATCC 25922): 66.07% | bacterial load, kidney (E. coli; E. coli peritonitis-sepsis, N4 10 mg kg^−1 i.p. 1 h after infection, infected group 6.62): 5.96 log10 CFU g^−1 | bacterial load, liver (E. coli; E. coli peritonitis-sepsis, N4 10 mg kg^−1 i.p. 1 h after infection, infected group 6.87): 6.07 log10 CFU g^−1 | bacterial load, spleen (E. coli; E. coli peritonitis-sepsis, N4 10 mg kg^−1 i.p. 1 h after infection, infected group 6.97): 6.28 log10 CFU g^−1 | bacterial load, peritoneum (E. coli; E. coli peritonitis-sepsis, N4 10 mg kg^−1 i.p. 1 h after infection, infected group 7.48): 6.37 log10 CFU | serum levels of anti-inflammatory cytokine IL-10 (E. coli; [2]): increased | serum levels of pro-inflammatory cytokines (IL-1β, IL-6, TNF-α) (E. coli; [2]): significant decreased
